Data: paper PMC3914206

Experiments:
panel of 442 kinases [1] = biological target: T1, panel of 442 kinases (Homo sapiens, UniProt P49137); format: binding; conditions: Compound Concentration 10 µM
T1 construct: purchased KINOMEscan
From the text: (§1) We assessed the selectivity of members of this scaffold using the KINOMEscan methodology across a near comprehensive panel of 442 kinases [[18,27]].

panel of 442 kinases [2] = biological target: T2, panel of 442 kinases (Homo sapiens, UniProt O14976); format: binding; conditions: Compound Concentration 10 µM
T2 construct: purchased KINOMEscan
T2 sequence (O14976 1-1311): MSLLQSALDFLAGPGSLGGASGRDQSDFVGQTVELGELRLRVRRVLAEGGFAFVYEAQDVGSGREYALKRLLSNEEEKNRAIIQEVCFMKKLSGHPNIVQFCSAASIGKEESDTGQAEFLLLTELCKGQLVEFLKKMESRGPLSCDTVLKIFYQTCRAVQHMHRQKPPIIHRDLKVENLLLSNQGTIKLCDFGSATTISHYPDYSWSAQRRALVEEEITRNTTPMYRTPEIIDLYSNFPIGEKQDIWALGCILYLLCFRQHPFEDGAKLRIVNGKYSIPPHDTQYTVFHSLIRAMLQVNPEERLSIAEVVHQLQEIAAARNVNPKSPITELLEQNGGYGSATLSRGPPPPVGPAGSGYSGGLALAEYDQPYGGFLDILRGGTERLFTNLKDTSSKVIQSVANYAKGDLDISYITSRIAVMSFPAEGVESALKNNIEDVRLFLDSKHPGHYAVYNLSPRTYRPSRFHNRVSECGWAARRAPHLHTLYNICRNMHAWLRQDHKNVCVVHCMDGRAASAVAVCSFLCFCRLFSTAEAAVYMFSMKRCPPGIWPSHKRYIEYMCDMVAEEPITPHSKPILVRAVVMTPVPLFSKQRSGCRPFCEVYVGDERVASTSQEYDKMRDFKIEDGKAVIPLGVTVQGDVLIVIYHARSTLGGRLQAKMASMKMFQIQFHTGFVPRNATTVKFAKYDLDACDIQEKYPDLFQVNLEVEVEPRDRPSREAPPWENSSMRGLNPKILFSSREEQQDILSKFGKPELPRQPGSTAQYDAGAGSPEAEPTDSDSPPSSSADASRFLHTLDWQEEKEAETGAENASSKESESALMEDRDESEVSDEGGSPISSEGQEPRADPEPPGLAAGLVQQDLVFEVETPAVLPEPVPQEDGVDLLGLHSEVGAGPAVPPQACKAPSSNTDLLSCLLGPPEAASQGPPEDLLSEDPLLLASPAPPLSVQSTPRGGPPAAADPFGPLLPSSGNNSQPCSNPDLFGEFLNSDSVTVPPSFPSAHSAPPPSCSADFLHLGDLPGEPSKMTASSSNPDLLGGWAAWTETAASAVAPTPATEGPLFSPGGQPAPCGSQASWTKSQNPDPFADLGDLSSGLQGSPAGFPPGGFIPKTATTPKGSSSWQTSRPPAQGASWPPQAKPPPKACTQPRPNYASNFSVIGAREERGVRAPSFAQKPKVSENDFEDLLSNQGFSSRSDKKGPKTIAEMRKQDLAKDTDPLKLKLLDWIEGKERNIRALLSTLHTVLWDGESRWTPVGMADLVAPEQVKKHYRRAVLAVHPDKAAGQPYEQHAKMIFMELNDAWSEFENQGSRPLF
From the text: as §1

T1 sequence (P49137 whole entry): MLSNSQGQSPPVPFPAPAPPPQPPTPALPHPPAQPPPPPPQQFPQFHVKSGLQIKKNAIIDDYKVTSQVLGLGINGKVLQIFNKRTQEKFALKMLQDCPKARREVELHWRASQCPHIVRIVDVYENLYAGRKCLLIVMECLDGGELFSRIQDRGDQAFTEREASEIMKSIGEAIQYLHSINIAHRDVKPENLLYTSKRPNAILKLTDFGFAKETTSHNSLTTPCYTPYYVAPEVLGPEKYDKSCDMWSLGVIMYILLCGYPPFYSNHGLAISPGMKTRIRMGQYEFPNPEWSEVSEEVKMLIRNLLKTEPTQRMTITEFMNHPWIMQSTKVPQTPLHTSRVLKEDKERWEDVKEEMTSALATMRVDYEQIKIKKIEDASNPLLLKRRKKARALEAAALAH

Row | Structure (SMILES) | KINOMEscan: MAPKAPK2 (panel of 442 kinases [1]) | KINOMEscan: GAK (panel of 442 kinases [2])
1 | COc1cc(C(=O)N2CCC(N3CCN(C)CC3)CC2)ccc1Nc1ncc2c(n1)N(C)c1ccccc1C(=O)N2C [15 (LRRK2-IN-1)] | 100 | 16
2 | CCOc1cc(C(=O)N2CCC(N3CCN(C)CC3)CC2)ccc1Nc1ncc2c(n1)N(C1CCCC1)c1ccccc1C(=O)N2C [Compound 26] | 100 | 100
3 | COc1cc(C(=O)N2CCC(N3CCN(C)CC3)CC2)ccc1Nc1ncc2c(n1)N1CCc3cccc(c31)C(=O)N2C [Compound 24] | – | 19
4 | COc1cc(C(=O)N2CCC(N3CCN(C)CC3)CC2)ccc1Nc1ncc2c(n1)N(C1CCCC1)c1ccccc1C(=O)N2C [Compound 25, 11-cyclopentyl-2-((2-methoxy-4-(4-(4-methylpiperazin-1-yl)piperidine-1-carbonyl)phenyl)amino)-5-methyl-5H-benzo[e]pyrimido[5,4-b][1,4]diazepin-6(11H)-one] | 100 | 82
